Test results as given in PubChem BioAssay AID2060912 (Molecular Pharmacology Branch, DTP, NCI, 2025).

System: HUVEC/MSC spheroids viability
Assay: Human HUVEC/MSC cell line growth inhibition [KRAS2];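 on viability, T/C: percent of DMSO vehicle control luminescence so 100% = untreated viability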
Conditions: for IC50: curve of first compound; for viability, T/C: stronger effect = lower value; active means viability on the fitted dose curve at most 10% of control; inactive means the rest
Method in brief: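 Growth/viability of tumour-free HUVEC–hMSC spheroids was measured after exposure to targeted small molecules and KRAS inhibitors, singly or in combination. Agents were diluted in half-log steps from Cmax-based top concentrations, capped at 10 microM without known Cmax.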

[1] = second compound 0.0316 µM, first compound 0.0316 µM
[2] = second compound 0.0316 µM, first compound 0.1 µM
[3] = second compound 0.1 µM, first compound 0.0316 µM
[4] = second compound 0.1 µM, first compound 0.1 µM
[5] = second compound 0.316 µM, first compound 0.0316 µM
[6] = second compound 0.316 µM, first compound 0.1 µM
[7] = second compound 1 µM, first compound 0.0316 µM
[8] = second compound 1 µM, first compound 0.1 µM
[9] = second compound 3.16 µM, first compound 0.0316 µM
[10] = second compound 3.16 µM, first compound 0.1 µM
[11] = second compound 10 µM, first compound 0.0316 µM
[12] = second compound 10 µM, first compound 0.1 µM

CC(C)NCC(C(=O)N1CCN(c2ncnc3c2C(C)CC3O)CC1)c1ccc(Cl)cc1 (centres undefined) + CNCc1ccccc1-c1csc(C(C)Nc2nc(C)nc3cc(OC)c(OC)cc23)c1
inactive: viability, T/C [1] 95.5% | viability, T/C [2] 108% | viability, T/C (second compound 0.0316 µM, first compound 0.316 µM) 98.5% | viability, T/C (second compound 0.0316 µM, first compound 1 µM) 70.2% | viability, T/C (second compound 0.0316 µM, first compound 3.16 µM) 69% | viability, T/C (second compound 0.0316 µM, first compound 10 µM) 64.2% | viability, T/C [3] 94.8% | viability, T/C [4] 97.8% | viability, T/C (second compound 0.1 µM, first compound 0.316 µM) 75.6% | viability, T/C (second compound 0.1 µM, first compound 1 µM) 70.4% | viability, T/C (second compound 0.1 µM, first compound 3.16 µM) 58.1% | viability, T/C (second compound 0.1 µM, first compound 10 µM) 54.1% | viability, T/C [5] 82.2% | viability, T/C [6] 106% | viability, T/C (second compound 0.316 µM, first compound 0.316 µM) 83.3% | viability, T/C (second compound 0.316 µM, first compound 1 µM) 73.5% | viability, T/C (second compound 0.316 µM, first compound 3.16 µM) 56.2% | viability, T/C (second compound 0.316 µM, first compound 10 µM) 50.8% | viability, T/C [7] 84.6% | viability, T/C [8] 106% | viability, T/C (second compound 1 µM, first compound 0.316 µM) 103% | viability, T/C (second compound 1 µM, first compound 1 µM) 71.3% | viability, T/C (second compound 1 µM, first compound 3.16 µM) 56.5% | viability, T/C (second compound 1 µM, first compound 10 µM) 51.6% | viability, T/C [9] 108% | viability, T/C [10] 93.2% | viability, T/C (second compound 3.16 µM, first compound 0.316 µM) 89.4% | viability, T/C (second compound 3.16 µM, first compound 1 µM) 79.5% | viability, T/C (second compound 3.16 µM, first compound 3.16 µM) 62.5% | viability, T/C (second compound 3.16 µM, first compound 10 µM) 57.7%
active: viability, T/C [11] 0.38% | viability, T/C [12] 0.44% | viability, T/C (second compound 10 µM, first compound 0.316 µM) 0.45% | viability, T/C (second compound 10 µM, first compound 1 µM) 0.42% | viability, T/C (second compound 10 µM, first compound 3.16 µM) 0.39% | viability, T/C (second compound 10 µM, first compound 10 µM) 0.26%
> 10000 nM: IC50 (second compound 0.0316 µM) | IC50 (second compound 0.1 µM) | IC50 (second compound 0.316 µM) | IC50 (second compound 1 µM) | IC50 (second compound 3.16 µM)
< 31.6 nM: IC50 (second compound 10 µM)

CC(C)n1nc(-c2ccc3oc(N)nc3c2)c2c(N)ncnc21 + CNCc1ccccc1-c1csc(C(C)Nc2nc(C)nc3cc(OC)c(OC)cc23)c1
7.12 nM: IC50 (second compound 0.316 µM)
active: viability, T/C (second compound 10 µM, first compound 0.000316 µM) 0.36% | viability, T/C (second compound 10 µM, first compound 0.001 µM) 0.39% | viability, T/C (second compound 10 µM, first compound 0.00316 µM) 0.37% | viability, T/C (second compound 10 µM, first compound 0.01 µM) 0.37% | viability, T/C [11] 0.42% | viability, T/C [12] 0.4%
3.15 nM: IC50 (second compound 0.0316 µM)
< 0.316 nM: IC50 (second compound 10 µM)
7.98 nM: IC50 (second compound 1 µM)
3.11 nM: IC50 (second compound 0.1 µM)
inactive: viability, T/C (second compound 0.0316 µM, first compound 0.000316 µM) 85.2% | viability, T/C (second compound 0.0316 µM, first compound 0.001 µM) 69% | viability, T/C (second compound 0.0316 µM, first compound 0.00316 µM) 50.2% | viability, T/C (second compound 0.0316 µM, first compound 0.01 µM) 44% | viability, T/C [1] 45.5% | viability, T/C [2] 44.4% | viability, T/C (second compound 0.1 µM, first compound 0.000316 µM) 84.8% | viability, T/C (second compound 0.1 µM, first compound 0.001 µM) 64.6% | viability, T/C (second compound 0.1 µM, first compound 0.00316 µM) 49.9% | viability, T/C (second compound 0.1 µM, first compound 0.01 µM) 45.6% | viability, T/C [3] 46.4% | viability, T/C [4] 45% | viability, T/C (second compound 0.316 µM, first compound 0.000316 µM) 81.9% | viability, T/C (second compound 0.316 µM, first compound 0.001 µM) 66.5% | viability, T/C (second compound 0.316 µM, first compound 0.00316 µM) 50.5% | viability, T/C (second compound 0.316 µM, first compound 0.01 µM) 51.9% | viability, T/C [5] 45.4% | viability, T/C [6] 37.6% | viability, T/C (second compound 1 µM, first compound 0.000316 µM) 70.1% | viability, T/C (second compound 1 µM, first compound 0.001 µM) 52.5% | viability, T/C (second compound 1 µM, first compound 0.00316 µM) 56.2% | viability, T/C (second compound 1 µM, first compound 0.01 µM) 50.6% | viability, T/C [7] 47% | viability, T/C [8] 37.5% | viability, T/C (second compound 3.16 µM, first compound 0.000316 µM) 89.7% | viability, T/C (second compound 3.16 µM, first compound 0.001 µM) 79% | viability, T/C (second compound 3.16 µM, first compound 0.00316 µM) 67.5% | viability, T/C (second compound 3.16 µM, first compound 0.01 µM) 40.7% | viability, T/C [9] 50.2% | viability, T/C [10] 36.5%
7.84 nM: IC50 (second compound 3.16 µM)
